Read-outs that look alike come from different tables or passages of the source.
Legend:
ryegrass, Italian = experiment: Test A preemergence; format: in vivo, Lolium multiflorum; settings: Lolium multiflorum, pre-emergence, 240 h, read-out: Plant response rating, Ryegrass, Italian; for pest or weed control at 125 g/ha: 125 g ai/ha; for pest or weed control at 500 g/ha: 500 g ai/ha
Method in brief: (§1)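 Seeds in loam–sand blend received a directed preemergence soil spray of compound in non-phytotoxic solvent with surfactant; postemergence plants (2–10 cm, one- to two-leaf stage) were sprayed with the same formulation. After 10 days in greenhouse, injury was rated visually versus untreated controls, 0 (no effect) to 100 (complete control).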

corn [1] = experiment: Test A postemergence; format: in vivo, Zea mays; settings: Zea mays, post-emergence, 240 h, postemergence, 10 days, 0 to 100 scale (0 no effect, 100 complete control); for plant injury at 125 g/ha: 125 g ai/ha, read-out: Corn plant response rating; for Corn plant response rating (crop injury, 0 = no effect, 100 = complete kill) at 500 g/ha: 500 g ai/ha, visual injury
Method in brief: as §1

goosegrass [2] = experiment: Test A preemergence; format: in vivo, Eleusine indica; settings: Eleusine indica, pre-emergence, 240 h, read-out: Plant response rating, Goosegrass; for pest or weed control at 125 g/ha: 125 g ai/ha; for pest or weed control at 500 g/ha: 500 g ai/ha
Method in brief: as §1

ragweed = experiment: Test A preemergence; format: in vivo, Ambrosia artemisiifolia; settings: Ambrosia artemisiifolia, pre-emergence, 240 h, read-out: Plant response rating, Ragweed; for pest or weed control at 125 g/ha: 125 g ai/ha; for pest or weed control at 500 g/ha: 500 g ai/ha
Method in brief: as §1

goosegrass [3] = experiment: Test A postemergence; format: in vivo, Eleusine indica; settings: Eleusine indica, post-emergence, 240 h, postemergence, 10 days, 0 to 100 scale (0 no effect, 100 complete control); for pest or weed control at 125 g/ha: 125 g ai/ha, read-out: Goosegrass plant response rating; for pest or weed control at 500 g/ha: 500 g ai/ha, visual injury, read-out: Plant response rating, Goosegrass
Method in brief: as §1

horseweed = experiment: Test A postemergence; format: in vivo, Erigeron canadensis; settings: Erigeron canadensis, post-emergence, 240 h, postemergence, 10 days, 0 to 100 scale (0 no effect, 100 complete control); for pest or weed control at 125 g/ha: 125 g ai/ha, read-out: Horseweed plant response rating; for pest or weed control at 500 g/ha: 500 g ai/ha, visual injury, read-out: Plant response rating, Horseweed
Method in brief: as §1

corn [4] = experiment: Test A preemergence; format: in vivo, Zea mays; settings: Zea mays, pre-emergence, 240 h; for Corn plant response rating (crop injury, 0 = no effect, 100 = complete kill) at 125 g/ha: 125 g ai/ha; for Corn plant response rating (crop injury, 0 = no effect, 100 = complete kill) at 500 g/ha: 500 g ai/ha
Method in brief: as §1

blackgrass = experiment: Test A postemergence; format: in vivo, Alopecurus myosuroides; settings: Alopecurus myosuroides, post-emergence, 240 h, postemergence, 10 days, 0 to 100 scale (0 no effect, 100 complete control); for pest or weed control at 125 g/ha: 125 g ai/ha, read-out: Blackgrass plant response rating; for pest or weed control at 500 g/ha: 500 g ai/ha, visual injury, read-out: Plant response rating, Blackgrass
Method in brief: as §1

barnyardgrass = experiment: Test B flooded paddy test; format: in vivo, Echinochloa crus-galli; settings: Echinochloa crus-galli, 312 h, 250 g ai/ha, Flood, 13 days, 0 to 100 scale (0 no effect, 100 complete control); read-out: Plant response rating, Barnyardgrass
Method in brief: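 Flooded to 3 cm at treatment time, 2-leaf plants got the test compound applied straight into the paddy water. They then stayed under constant flood in a greenhouse for 13 days. Ratings used a 0 to 100 visual scale.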

foxtail, giant [5] = experiment: Test A postemergence; format: in vivo, Setaria faberi; settings: Setaria faberi, post-emergence, 240 h, postemergence, 10 days, 0 to 100 scale (0 no effect, 100 complete control); for pest or weed control at 125 g/ha: 125 g ai/ha, read-out: Foxtail, Giant plant response rating; for pest or weed control at 500 g/ha: 500 g ai/ha, visual injury, read-out: Plant response rating, Foxtail, Giant
Method in brief: as §1

pigweed, palmer = experiment: Test A postemergence; format: in vivo, Amaranthus palmeri; settings: Amaranthus palmeri, post-emergence, 240 h, postemergence, 10 days, 0 to 100 scale (0 no effect, 100 complete control); for pest or weed control at 125 g/ha: 125 g ai/ha, read-out: Pigweed, Palmer plant response rating; for pest or weed control at 500 g/ha: 500 g ai/ha, visual injury, read-out: Plant response rating, Pigweed, Palmer
Method in brief: as §1

foxtail, giant [6] = experiment: Test A preemergence; format: in vivo, Setaria faberi; settings: Setaria faberi, pre-emergence, 240 h, read-out: Plant response rating, Foxtail, Giant; for pest or weed control at 125 g/ha: 125 g ai/ha; for pest or weed control at 500 g/ha: 500 g ai/ha
Method in brief: as §1

wheat = experiment: Test A preemergence; format: in vivo, Triticum aestivum; settings: Triticum aestivum, pre-emergence, 240 h, read-out: Plant response rating, Wheat; for plant injury at 125 g/ha: 125 g ai/ha; for plant injury at 500 g/ha: 500 g ai/ha
Method in brief: as §1

[7] = visual injury after 10 days, 0 to 100 scale, 0 is no effect, 100 is complete control
[8] = 0 to 100 scale (0 no effect, 100 complete control), 10 days

| SMILES | pest or weed control at 125 g/ha (ryegrass, Italian; [7]) [%] | pest or weed control at 500 g/ha (ryegrass, Italian; [8]) [%] | plant injury at 125 g/ha (corn [1]) [%] | Corn plant response rating (crop injury, 0 = no effect, 100 = complete kill) at 500 g/ha (corn [1]) [%] | pest or weed control at 125 g/ha (goosegrass [2]; [7]) [%] | pest or weed control at 125 g/ha (ragweed; [7]) [%] | pest or weed control at 125 g/ha (goosegrass [3]) [%] | pest or weed control at 500 g/ha (goosegrass [3]) [%] | pest or weed control at 125 g/ha (horseweed) [%] | pest or weed control at 500 g/ha (horseweed) [%] | Corn plant response rating (crop injury, 0 = no effect, 100 = complete kill) at 125 g/ha (corn [4]; [7]) [%] | pest or weed control at 125 g/ha (blackgrass) [%] | pest or weed control at 500 g/ha (blackgrass) [%] | pest or weed control at 250 g/ha (barnyardgrass) [%] | pest or weed control at 125 g/ha (foxtail, giant [5]) [%] | pest or weed control at 500 g/ha (foxtail, giant [5]) [%] | pest or weed control at 125 g/ha (pigweed, palmer) [%] | pest or weed control at 500 g/ha (pigweed, palmer) [%] | pest or weed control at 125 g/ha (foxtail, giant [6]; [7]) [%] | plant injury at 125 g/ha (wheat; [7]) [%] | also measured |
| --- | --- | --- | --- | --- | --- | --- | --- | --- | --- | --- | --- | --- | --- | --- | --- | --- | --- | --- | --- | --- | --- |
| COc1ccc(-n2cnc(C(C)C)n2)cc1C(=O)N1C[C@H](C)Oc2c(Cl)cccc21 [Compound 84, [(2S)-8-chloro-2-methyl-2,3-dihydro-1,4-benzoxazin-4-yl]-[5-(3-isopropyl-1,2,4-triazol-1-yl)-2-methoxy-phenyl]methanone] | 100 | 100 | 70 | 90 | 100 | 70 | 100 | 100 | 40 | 50 | 20 | 70 | 70 | 65 | 80 | 100 | 90 | 100 | 100 | 60 | pest or weed control at 500 g/ha (goosegrass [2]; [8]): 100%; pest or weed control at 500 g/ha (ragweed; [8]): 100%; Corn plant response rating (crop injury, 0 = no effect, 100 = complete kill) at 500 g/ha (corn [4]; [8]): 20%; pest or weed control at 500 g/ha (foxtail, giant [6]; [8]): 100%; plant injury at 500 g/ha (wheat; [8]): 90% |
| C[C@H]1CN(C(=O)c2cccc(-n3cnc(C4CCC4)n3)c2)c2cccc(Cl)c2O1 [Compound 93, [(2S)-8-Chloro-2,3-dihydro-2-methyl-4H-1,4-benzoxazin-4-yl][3-(3-cyclobutyl-1H-1,2,4-triazol-1-yl)phenyl]methanone] | 90 | 100 | 60 | 90 | 90 | 0 | 20 | 70 | 0 | 40 | 10 | 70 | 90 | 0 | 60 | 90 | 90 | 100 | 80 | 0 | pest or weed control at 500 g/ha (goosegrass [2]; [8]): 100%; pest or weed control at 500 g/ha (ragweed; [8]): 0%; Corn plant response rating (crop injury, 0 = no effect, 100 = complete kill) at 500 g/ha (corn [4]; [8]): 10%; pest or weed control at 500 g/ha (foxtail, giant [6]; [8]): 100%; plant injury at 500 g/ha (wheat; [8]): 10% |
| Cc1cccc2c1O[C@@H](C)CN2C(=O)c1cccc(-n2cn[nH]c2=O)c1 [Compound 122, 4-[3-[[(2S)-2,3-Dihydro-2,8-dimethyl-4H-1,4-benzoxazin-4-yl]carbonyl]phenyl]-2,4-dihydro-3H-1,2,4-triazol-3-one] | 20 |  | 10 | 60 | 0 | 0 | 0 | 60 | 0 | 0 | 0 | 0 | 50 | 0 | 20 | 50 | 20 | 20 | 20 | 0 | pest or weed control at 500 g/ha (ryegrass, Italian; [7]): 70%; pest or weed control at 500 g/ha (goosegrass [2]; [7]): 90%; pest or weed control at 500 g/ha (ragweed; [7]): 0%; Corn plant response rating (crop injury, 0 = no effect, 100 = complete kill) at 500 g/ha (corn [4]; [7]): 10%; pest or weed control at 500 g/ha (foxtail, giant [6]; [7]): 90%; plant injury at 500 g/ha (wheat; [7]): 0% |
